Laboratory results taken from paper PMC9736855, “Discovery of 3-Amino-1H-pyrazole-Based Kinase Inhibitors to Illuminate the Understudied PCTAIRE Family” (International Journal of Molecular Sciences, 2022).

Legend:
[1] = biological target: T1, CAMKK2 (Homo sapiens, UniProt Q96RR4); assay: DSF; assay type: binding
T1 construct: purchased in-house DSF panel (SGC Frankfurt)
Procedure: (§2) Recombinant protein kinase domains with a concentration of 2 μM were mixed with a 10 μM compound solution in DMSO, 20 mM HEPES, pH 7.5, and 500 mM NaCl. SYPRO Orange (5000×, Invitrogen) was added as a fluorescence probe (1 µl per mL). Subsequently, temperature-dependent protein unfolding profiles were measured, using the QuantStudio™ 5 realtime PCR machine (Thermo Fisher, Waltham, MA, USA). […] The temperature was raised with a step rate of 3 °C per minute. Data points were analyzed with the internal software (Thermal Shift SoftwareTM Version 1.4, Thermo Fisher) using the Boltzmann equation to determine the inflection point of the transition curve [56]. Differences in melting temperature are given as ΔTm values in °C. Measurements were performed in duplicates.

[2] = biological target: T2, FGFR2 (Homo sapiens, UniProt P21802); assay: DSF; assay type: binding;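 further: compound tested at 10 µM with 2 µM protein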
T2 construct: purchased in-house DSF panel (SGC Frankfurt)
Procedure: as §2

[3] = biological target: T3, GSG2 (Homo sapiens, UniProt Q8TF76); assay: DSF; assay type: binding
T3 construct: purchased in-house DSF panel (SGC Frankfurt)
T3 sequence (Q8TF76 465-798): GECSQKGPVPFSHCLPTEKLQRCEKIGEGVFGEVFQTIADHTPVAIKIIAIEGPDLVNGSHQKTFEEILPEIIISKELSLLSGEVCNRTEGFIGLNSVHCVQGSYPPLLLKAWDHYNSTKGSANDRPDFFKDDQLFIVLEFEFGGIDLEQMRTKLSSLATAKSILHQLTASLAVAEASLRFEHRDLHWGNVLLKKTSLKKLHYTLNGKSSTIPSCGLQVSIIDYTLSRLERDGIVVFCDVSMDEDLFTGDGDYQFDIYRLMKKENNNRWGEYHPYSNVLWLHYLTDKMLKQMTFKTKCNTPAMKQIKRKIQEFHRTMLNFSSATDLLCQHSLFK
Procedure: as §2

[4] = biological target: T4, MAPK10 (Homo sapiens, UniProt P53779); assay: DSF; assay type: binding;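 further: compound tested at 10 µM with 2 µM protein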
T4 construct: purchased in-house DSF panel (SGC Frankfurt)
Procedure: as §2

[5] = biological target: T5, TTK (Homo sapiens, UniProt P33981); assay: DSF; assay type: binding;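 further: compound tested at 10 µM with 2 µM protein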
T5 construct: purchased in-house DSF panel (SGC Frankfurt)
T5 sequence (P33981 519-808): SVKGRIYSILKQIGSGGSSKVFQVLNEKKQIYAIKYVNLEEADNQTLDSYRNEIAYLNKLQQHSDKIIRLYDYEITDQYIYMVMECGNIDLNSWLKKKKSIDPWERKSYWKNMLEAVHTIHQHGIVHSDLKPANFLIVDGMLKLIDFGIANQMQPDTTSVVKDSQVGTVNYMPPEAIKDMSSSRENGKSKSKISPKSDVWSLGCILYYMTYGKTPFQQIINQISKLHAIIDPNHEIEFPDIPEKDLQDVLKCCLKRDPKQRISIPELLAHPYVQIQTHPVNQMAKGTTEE
Procedure: as §2

[6] = biological target: T6, STK17A (Homo sapiens, UniProt Q9UEE5); assay: DSF; assay type: binding
T6 construct: purchased in-house DSF panel (SGC Frankfurt)
T6 sequence (Q9UEE5 61-321): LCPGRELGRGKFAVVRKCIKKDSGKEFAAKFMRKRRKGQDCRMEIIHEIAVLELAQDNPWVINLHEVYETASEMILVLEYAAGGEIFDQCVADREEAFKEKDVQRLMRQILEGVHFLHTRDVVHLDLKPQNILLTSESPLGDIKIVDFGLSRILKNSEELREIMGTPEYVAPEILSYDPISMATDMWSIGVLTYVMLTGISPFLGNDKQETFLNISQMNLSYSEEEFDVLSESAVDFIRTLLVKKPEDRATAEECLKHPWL
Procedure: as §2

[7] = biological target: T7, HIPK2 (Homo sapiens, UniProt Q9H2X6); assay: DSF; assay type: binding
T7 construct: purchased in-house DSF panel (SGC Frankfurt)
Procedure: (§1) Measurements were performed in duplicates.

[8] = biological target: T8, NEK2 (Homo sapiens, UniProt P51955); assay: DSF; assay type: binding
T8 construct: purchased in-house DSF panel (SGC Frankfurt)
T8 sequence (P51955 1-271): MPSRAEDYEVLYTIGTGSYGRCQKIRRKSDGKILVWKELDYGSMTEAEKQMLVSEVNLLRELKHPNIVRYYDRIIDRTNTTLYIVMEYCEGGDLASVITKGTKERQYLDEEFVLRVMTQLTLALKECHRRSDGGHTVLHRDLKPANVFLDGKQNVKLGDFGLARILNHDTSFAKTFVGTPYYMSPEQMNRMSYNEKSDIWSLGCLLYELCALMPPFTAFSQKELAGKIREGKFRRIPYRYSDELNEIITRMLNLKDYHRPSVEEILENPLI
Procedure: as §1

[9] = biological target: T9, EPHA4 (Homo sapiens, UniProt P54764); assay: DSF; assay type: binding
T9 construct: purchased in-house DSF panel (SGC Frankfurt)
T9 sequence (P54764 606-890): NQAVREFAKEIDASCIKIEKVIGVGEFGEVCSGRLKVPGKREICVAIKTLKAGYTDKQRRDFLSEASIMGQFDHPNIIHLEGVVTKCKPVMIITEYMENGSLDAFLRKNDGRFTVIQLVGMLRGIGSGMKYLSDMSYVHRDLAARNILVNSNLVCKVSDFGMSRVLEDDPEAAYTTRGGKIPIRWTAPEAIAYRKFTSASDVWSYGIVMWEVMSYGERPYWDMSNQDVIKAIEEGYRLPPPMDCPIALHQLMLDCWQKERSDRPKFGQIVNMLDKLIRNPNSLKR
Procedure: as §1

[10] = biological target: T10, AKT3 (Homo sapiens, UniProt Q9Y243); assay: DSF; assay type: binding
T10 construct: purchased in-house DSF panel (SGC Frankfurt)
Procedure: as §2

[11] = biological target: T11, ULK1 (Homo sapiens, UniProt O75385); assay: DSF; assay type: binding
T11 construct: purchased in-house DSF panel (SGC Frankfurt)
T11 sequence (O75385 1-283): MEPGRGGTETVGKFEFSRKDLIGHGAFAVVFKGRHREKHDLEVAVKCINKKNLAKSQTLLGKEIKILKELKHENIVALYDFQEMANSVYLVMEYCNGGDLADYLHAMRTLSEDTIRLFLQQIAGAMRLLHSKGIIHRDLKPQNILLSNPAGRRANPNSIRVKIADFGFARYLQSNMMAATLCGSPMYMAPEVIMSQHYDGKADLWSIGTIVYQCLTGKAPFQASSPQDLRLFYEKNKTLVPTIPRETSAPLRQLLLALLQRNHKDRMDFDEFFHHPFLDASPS
Procedure: as §1

[12] = system: CDK16 and GSK3; assay: proteome-wide CETSA MS; assay type: cell-based; settings: K562 cells, 30 µM, 60 min
Procedure: To verify whether the substances also lead to stabilization of proteins in the cellular system, proteome-wide CETSA experiments were performed. Therefore, lead structure 1 and some compounds from the second series (21b, 21d, 21e, 21h, and 21i) were selected for this study (Figure 6, Figure S1). While the statistical significance is plotted on the Y-axis, the relative protein amount is shown on the X-axis. […] Based on excellent proteome-wide selectivity identifying CDK16 and GSK3 as the most prominently stabilized kinases, 21d and 21i were selected for further investigations. […] We therefore decided to proceed with a CDK16-specific cellular assay.
Compressed CETSA MS assays, also known as PISA (Proteome Integral Stability Alteration assay), were performed as previously described by Chernobrovkin et. al., with some minor changes. K562 cells were obtained from ATCC. K562 cells were mixed with an equal volume of compound solution, final concentartion of 30 µM, in a buffer (20 mM HEPES, 138 mM NaCl, 5 mM KCl, 2 mM CaCl2, 1 mM MgCl2, pH 7.4). One percent and DMSO was used as a control. Cells were incubated at +37 °C for 60 min. The cell suspension was split into 12 aliquots which were heated at a different temperature between 44 and 66 °C for 3 min. After the heating, the cells were lysed through freeze–thawing them 3 times and the lysed aliquots were pooled together. Cell debris and aggregates were removed through centrifugation (20 min at 30.000× g).

[13] = system: RPS6KA6; assay: DSF; assay type: binding
Procedure: as §2

T10 sequence (Q9Y243 148-479): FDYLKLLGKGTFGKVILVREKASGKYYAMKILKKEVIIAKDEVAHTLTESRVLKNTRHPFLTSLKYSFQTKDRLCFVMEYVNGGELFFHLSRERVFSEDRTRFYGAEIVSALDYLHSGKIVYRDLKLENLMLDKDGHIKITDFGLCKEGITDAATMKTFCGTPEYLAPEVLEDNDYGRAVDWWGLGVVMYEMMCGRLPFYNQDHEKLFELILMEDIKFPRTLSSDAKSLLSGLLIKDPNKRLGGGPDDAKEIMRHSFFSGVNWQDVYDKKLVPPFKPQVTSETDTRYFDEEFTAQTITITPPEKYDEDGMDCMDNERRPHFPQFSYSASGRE
T2 sequence (P21802 458-770): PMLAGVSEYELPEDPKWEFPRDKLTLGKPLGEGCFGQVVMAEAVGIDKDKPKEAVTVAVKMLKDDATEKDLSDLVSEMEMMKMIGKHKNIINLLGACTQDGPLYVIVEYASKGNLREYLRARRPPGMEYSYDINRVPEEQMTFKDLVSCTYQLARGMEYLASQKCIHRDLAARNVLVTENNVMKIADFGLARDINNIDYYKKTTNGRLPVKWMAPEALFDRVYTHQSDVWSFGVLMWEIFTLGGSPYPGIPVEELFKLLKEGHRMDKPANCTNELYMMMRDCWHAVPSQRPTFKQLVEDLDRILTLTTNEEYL
T1 sequence (Q96RR4 161-449): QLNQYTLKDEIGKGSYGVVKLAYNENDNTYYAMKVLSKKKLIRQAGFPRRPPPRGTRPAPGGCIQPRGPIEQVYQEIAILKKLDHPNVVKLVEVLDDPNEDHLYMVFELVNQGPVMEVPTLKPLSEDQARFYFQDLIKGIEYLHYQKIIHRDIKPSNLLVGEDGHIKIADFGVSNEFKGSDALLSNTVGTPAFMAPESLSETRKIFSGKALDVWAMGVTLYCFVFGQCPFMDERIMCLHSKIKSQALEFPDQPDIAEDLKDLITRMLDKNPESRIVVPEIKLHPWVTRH
T4 sequence (P53779 whole entry): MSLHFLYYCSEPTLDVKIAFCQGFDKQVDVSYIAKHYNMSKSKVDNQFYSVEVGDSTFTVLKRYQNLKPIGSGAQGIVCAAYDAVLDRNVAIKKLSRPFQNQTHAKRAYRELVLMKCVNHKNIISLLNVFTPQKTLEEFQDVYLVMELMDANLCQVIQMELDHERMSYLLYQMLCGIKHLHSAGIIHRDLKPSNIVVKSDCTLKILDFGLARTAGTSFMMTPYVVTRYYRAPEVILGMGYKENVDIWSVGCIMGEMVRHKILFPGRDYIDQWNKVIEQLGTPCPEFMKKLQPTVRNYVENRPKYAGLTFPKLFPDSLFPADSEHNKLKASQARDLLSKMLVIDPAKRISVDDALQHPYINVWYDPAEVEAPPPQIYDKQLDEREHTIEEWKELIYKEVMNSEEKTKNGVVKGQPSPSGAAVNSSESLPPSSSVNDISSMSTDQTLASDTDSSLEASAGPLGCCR
T7 sequence (Q9H2X6 199-527): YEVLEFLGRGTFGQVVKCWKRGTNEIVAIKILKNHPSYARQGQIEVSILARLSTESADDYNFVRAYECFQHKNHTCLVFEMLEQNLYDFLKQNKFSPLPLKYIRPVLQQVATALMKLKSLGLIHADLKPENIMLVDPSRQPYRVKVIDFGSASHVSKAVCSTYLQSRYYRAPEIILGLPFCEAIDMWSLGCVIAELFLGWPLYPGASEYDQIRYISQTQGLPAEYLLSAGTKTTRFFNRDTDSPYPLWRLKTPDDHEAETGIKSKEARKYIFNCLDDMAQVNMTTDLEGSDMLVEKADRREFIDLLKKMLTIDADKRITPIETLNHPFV

| Compound | ΔTm CAMKK2 [1] | ΔTm FGFR2 [2] | ΔTm GSG2 [3] | ΔTm MAPK10 [4] | ΔTm TTK [5] | ΔTm STK17A [6] | ΔTm HIPK2 [7] | ΔTm NEK2 [8] | ΔTm EPHA4 [9] | ΔTm AKT3 [10] | ΔTm ULK1 [11] | stabilization in CETSA MS [12] | ΔTm RPS6KA6 [13] |
| --- | --- | --- | --- | --- | --- | --- | --- | --- | --- | --- | --- | --- | --- |
| CC(C)OC(=O)c1cc(Nc2ccnc(NCc3ccc(NC(=O)OC(C)(C)C)cc3)n2)n[nH]1 [42d, isopropyl 3-((2-((4-((tert-butoxycarbonyl)amino)benzyl)amino)pyrimidin-4-yl)amino)-1H-pyrazole-5-carboxylate] | -0.6 °C | 0.1 °C | 0.5 °C | -3.0 °C | -0.1 °C | -0.4 °C | -0.2 °C | -1.4 °C | -0.1 °C | 0.6 °C | – | – | – |
| CN[C@@H]1C[C@H]2O[C@@](C)([C@@H]1OC)n1c3ccccc3c3c4c(c5c6ccccc6n2c5c31)C(=O)NC4 [staurosporine, reference compound] | – | – | – | – | – | – | 4.4 °C | 3.3 °C | 6.2 °C | – | 11.3 °C | – | – |
| COC(=O)c1cc(Nc2ccnc(NCc3ccc(NC(=O)OC(C)(C)C)cc3)n2)[nH]n1 [21i, methyl 5-((2-((4-((tert-butoxycarbonyl)amino)benzyl)amino)pyrimidin-4-yl)amino)-1H-pyrazole-3-carboxylate] | 1.1 °C | 0.2 °C | -0.2 °C | 1.8 °C | 0.0 °C | -0.1 °C | – | – | – | -0.3 °C | 2.7 °C | stabilization of CDK16 and GSK3 | -0.3 °C |
| CC(C)(C)OC(=O)Nc1ccc(CNc2nccc(Nc3cc(C(=O)OC(C)(C)C)[nH]n3)n2)cc1 [43d, tert-butyl 3-((2-((4-((tert-butoxycarbonyl)amino)benzyl)amino)pyrimidin-4-yl)amino)-1H-pyrazole-5-carboxylate] | 0.1 °C | 0.3 °C | -0.3 °C | -1.6 °C | -0.2 °C | -0.6 °C | 0.1 °C | 2.0 °C | 0.0 °C | 0.5 °C | – | – | – |
| COC(=O)c1cc(Nc2ccnc(NCCOCCNC(=O)OC(C)(C)C)n2)[nH]n1 [21d, methyl 5-((2-((2-(2-((tert-butoxycarbonyl)amino)ethoxy)ethyl)amino)pyrimidin-4-yl)amino)-1H-pyrazole-3-carboxylate] | 0.5 °C | 1.5 °C | 0.2 °C | 2.9 °C | 1.6 °C | 2.2 °C | – | – | – | 0.3 °C | 2.3 °C | stabilization of CDK16 and GSK3 | -0.3 °C |
| N#CCc1ccc(Nc2nccc(Nc3cc(C4CC4)[nH]n3)n2)cc1 [compound 1, reference compound] | 12.0 °C | 5.9 °C | 2.9 °C | 7.2 °C | 8.8 °C | 9.6 °C | – | – | – | – | 15.5 °C | stabilization of CDK16 and GSK3 | 0.4 °C |
